Converted amounts (≈) assume the structure as drawn.
System: Adriamycin-sensitive P388 leukemia cells (P388/S)
Experiment: Growth inhibition of cultured Adriamycin-sensitive P388 leukemia cells
Type: cell-based
Conditions: Mus musculus, P388/S, read-out: IC50 (μg/ml) P388/S
Text: The substance MH190 of the present invention are capable of inhibiting the growth of cultured Adriamycin-sensitive P388 leukemia cells (P388/S) and Adriamycin-resistant P388 leukemia cells (P388/ADR) in very low concentrations.
For CC1OC(OC2CCC(OC3(C)CC(=O)C4(O)C5=C(C=CC4(O)C3)C(=O)c3c(ccc(C4CC6OC7CC(=O)C(C)OC7OC6C(C)O4)c3O)C5=O)OC2C)CCC1=O (centres unmarked) [MH190 Y4, Saquayamycin D], the IC50 was 0.07 µg/mL (≈ 0.0851 µM).
Compound CC1OC(OC2CCC(OC3(C)CC(=O)C4(O)C5=C(C=CC4(O)C3)C(=O)c3c(ccc(C4CC6OC7CC(=O)C(C)OC7OC6C(C)O4)c3O)C5=O)OC2C)C=CC1=O (centres unmarked) [MH190 Y2, Saquayamycin B] has an IC50 of 0.08 µg/mL (≈ 0.0975 µM).
Work on CC1OC(OC2C(O)CC(c3ccc4c(c3O)C(=O)C3=C(C4=O)C4(O)C(=O)CC(C)(O)CC4(O)C=C3)OC2C)C=CC1=O (centres unmarked) [MH190 Y1-1, Saquayamycin A1] yielded an IC50 of 0.175 µg/mL (≈ 0.293 µM).
For COc1cccc2c1C(=O)c1c(O)c3c(c(O)c1C2=O)C[C@@](O)(C(=O)CO)C[C@@H]3O[C@H]1C[C@H](N)[C@H](O)[C@H](C)O1 [Adriamycin, reference compound], the IC50 was 0.012 µg/mL (≈ 0.0221 µM).

System: Adriamycin-resistant P388 leukemia cells (P388/ADR)
Experiment: Growth inhibition of cultured Adriamycin-resistant (multi-drug resistant) P388 leukemia cells
Type: cell-based
Conditions: Mus musculus, P388/ADR, read-out: IC50 (μg/ml) P388/ADR
CC1OC(OC2CCC(OC3(C)CC(=O)C4(O)C5=C(C=CC4(O)C3)C(=O)c3c(ccc(C4CC6OC7CC(=O)C(C)OC7OC6C(C)O4)c3O)C5=O)OC2C)CCC1=O (centres unmarked) [MH190 Y4, Saquayamycin D] gave an IC50 of 0.06 µg/mL (≈ 0.0729 µM).
Compound CC1OC(OC2CCC(OC3(C)CC(=O)C4(O)C5=C(C=CC4(O)C3)C(=O)c3c(ccc(C4CC6OC7CC(=O)C(C)OC7OC6C(C)O4)c3O)C5=O)OC2C)C=CC1=O (centres unmarked) [MH190 Y2, Saquayamycin B] has an IC50 of 0.067 µg/mL (≈ 0.0816 µM).
Compound CC1OC(OC2C(O)CC(c3ccc4c(c3O)C(=O)C3=C(C4=O)C4(O)C(=O)CC(C)(O)CC4(O)C=C3)OC2C)C=CC1=O (centres unmarked) [MH190 Y1-1, Saquayamycin A1] has an IC50 of 0.09 µg/mL (≈ 0.151 µM).

Same assay, conditions: Mus musculus; cultured P388/ADR cells; read-out: IC50 (μg/ml) P388/ADR
COc1cccc2c1C(=O)c1c(O)c3c(c(O)c1C2=O)C[C@@](O)(C(=O)CO)C[C@@H]3O[C@H]1C[C@H](N)[C@H](O)[C@H](C)O1 [Adriamycin, reference compound] showed an IC50 of 0.38 µg/mL (≈ 0.699 µM).

Same assay, conditions: ratio of IC50 P388/ADR to IC50 P388/S
In the case of CC1OC(OC2CCC(OC3(C)CC(=O)C4(O)C5=C(C=CC4(O)C3)C(=O)c3c(ccc(C4CC6OC7CC(=O)C(C)OC7OC6C(C)O4)c3O)C5=O)OC2C)CCC1=O (centres unmarked) [MH190 Y4, Saquayamycin D], the “Ratio (P388/ADR to P388/S)” value is reported as 0.86.
In the case of CC1OC(OC2CCC(OC3(C)CC(=O)C4(O)C5=C(C=CC4(O)C3)C(=O)c3c(ccc(C4CC6OC7CC(=O)C(C)OC7OC6C(C)O4)c3O)C5=O)OC2C)C=CC1=O (centres unmarked) [MH190 Y2, Saquayamycin B], the “Ratio (P388/ADR to P388/S)” value is reported as 0.84.
In the case of CC1OC(OC2C(O)CC(c3ccc4c(c3O)C(=O)C3=C(C4=O)C4(O)C(=O)CC(C)(O)CC4(O)C=C3)OC2C)C=CC1=O (centres unmarked) [MH190 Y1-1, Saquayamycin A1], the “Ratio (P388/ADR to P388/S)” value is reported as 0.51.
In the case of COc1cccc2c1C(=O)c1c(O)c3c(c(O)c1C2=O)C[C@@](O)(C(=O)CO)C[C@@H]3O[C@H]1C[C@H](N)[C@H](O)[C@H](C)O1 [Adriamycin, reference compound], the “Ratio (P388/ADR to P388/S)” value is reported as 31.7.

System: L1210 leukemia cells
Experiment: Anti-tumor activity against intraperitoneally transplanted L1210 leukemia in mice (life prolongation)
Type: in vivo, CDF1 mice
Conditions: dose 0.156 mg/Kg/dat, intraperitoneal for 10 days; survival of saline control taken as 100
Procedure: L1210 leukemia cells (1 x 10^5 per animal) were transplanted intraperitoneally into CDF1 mice. Immediately after the transplantation, a solution of MH190 Y2 was injected intraperitoneally for 10 days in a dose of […]. The percentage life prolongation of each of the treated mice was checked and the results are shown below, with the number of days of survival of control mice to which physiological saline had been administered being taken as 100.
Work on CC1OC(OC2CCC(OC3(C)CC(=O)C4(O)C5=C(C=CC4(O)C3)C(=O)c3c(ccc(C4CC6OC7CC(=O)C(C)OC7OC6C(C)O4)c3O)C5=O)OC2C)C=CC1=O (centres unmarked) [MH190 Y2, Saquayamycin B] yielded a Percentage life prolongation of 102.

Same assay, conditions: dose 0.313 mg/Kg/dat, intraperitoneal for 10 days; survival of saline control taken as 100
For CC1OC(OC2CCC(OC3(C)CC(=O)C4(O)C5=C(C=CC4(O)C3)C(=O)c3c(ccc(C4CC6OC7CC(=O)C(C)OC7OC6C(C)O4)c3O)C5=O)OC2C)C=CC1=O (centres unmarked) [MH190 Y2, Saquayamycin B], the Percentage life prolongation was 127.

Same assay, conditions: dose 0.625 mg/Kg/dat, intraperitoneal for 10 days; survival of saline control taken as 100
CC1OC(OC2CCC(OC3(C)CC(=O)C4(O)C5=C(C=CC4(O)C3)C(=O)c3c(ccc(C4CC6OC7CC(=O)C(C)OC7OC6C(C)O4)c3O)C5=O)OC2C)C=CC1=O (centres unmarked) [MH190 Y2, Saquayamycin B] gave a Percentage life prolongation of 120.

Same assay, conditions: dose 1.25 mg/Kg/dat, intraperitoneal for 10 days; survival of saline control taken as 100
CC1OC(OC2CCC(OC3(C)CC(=O)C4(O)C5=C(C=CC4(O)C3)C(=O)c3c(ccc(C4CC6OC7CC(=O)C(C)OC7OC6C(C)O4)c3O)C5=O)OC2C)C=CC1=O (centres unmarked) [MH190 Y2, Saquayamycin B] gave a Percentage life prolongation of 127.

Same assay, conditions: dose 2.5 mg/Kg/dat, intraperitoneal for 10 days; survival of saline control taken as 100
CC1OC(OC2CCC(OC3(C)CC(=O)C4(O)C5=C(C=CC4(O)C3)C(=O)c3c(ccc(C4CC6OC7CC(=O)C(C)OC7OC6C(C)O4)c3O)C5=O)OC2C)C=CC1=O (centres unmarked) [MH190 Y2, Saquayamycin B] showed a Percentage life prolongation of 151.

Same assay, conditions: dose 5 mg/Kg/dat, intraperitoneal for 10 days; survival of saline control taken as 100
With CC1OC(OC2CCC(OC3(C)CC(=O)C4(O)C5=C(C=CC4(O)C3)C(=O)c3c(ccc(C4CC6OC7CC(=O)C(C)OC7OC6C(C)O4)c3O)C5=O)OC2C)C=CC1=O (centres unmarked) [MH190 Y2, Saquayamycin B] the Percentage life prolongation was 175.

Same assay, conditions: doses ranging from 0.313 to 5 mg/kg/day
In the case of CC1OC(OC2CCC(OC3(C)CC(=O)C4(O)C5=C(C=CC4(O)C3)C(=O)c3c(ccc(C4CC6OC7CC(=O)C(C)OC7OC6C(C)O4)c3O)C5=O)OC2C)C=CC1=O (centres unmarked) [MH190 Y2, Saquayamycin B], the anti-tumor activities is reported as “appreciable anti-tumor activities”.

System: not listed separately
Experiment: Acute toxicity (LD50), single intraperitoneal injection
Conditions: mouse, in vivo, ip; single intraperitoneal injection into mice
Work on CC1OC(OC2CCC(OC3(C)CC(=O)C4(O)C5=C(C=CC4(O)C3)C(=O)c3c(ccc(C4CC6OC7CC(=O)C(C)OC7OC6C(C)O4)c3O)C5=O)OC2C)C=CC1=O (centres unmarked) [MH190 Y2, Saquayamycin B] yielded an LD50 of 6.25 to 12.5 mg/kg.

System: not listed separately
Experiment: Stability (physicochemical properties, Table 5)
Conditions: light, acid, alkali, silica gel
For CC1OC(OC2CCC(OC3(C)CC(=O)C4(O)C5=C(C=CC4(O)C3)C(=O)c3c(ccc(C4CC6OC7CC(=O)C(C)OC7OC6C(C)O4)c3O)C5=O)OC2C)CCC1=O (centres unmarked) [MH190 Y4, Saquayamycin D], the Stability was “instable against light, acid and alkali”.
In the case of CC1OC(OC2CCC(OC3(C)CC(=O)C4(O)C5=C(C=CC4(O)C3)C(=O)c3c(ccc(C4CC6OC7CC(=O)C(C)OC7OC6C(C)O4)c3O)C5=O)OC2C)C=CC1=O (centres unmarked) [MH190 Y2, Saquayamycin B], the Stability is reported as “instable against light, acid and alkali”.
In the case of CC1OC(OC2C(O)CC(c3ccc4c(c3O)C(=O)C3=C(C4=O)C4(O)C(=O)CC(C)(O)CC4(O)C=C3)OC2C)C=CC1=O (centres unmarked) [MH190 Y1-1, Saquayamycin A1], the Stability is reported as “instable against light, acid and alkali changed to MH190 Y2 on silica gel”.

System: not listed separately
Experiment: Solubility in solvents (physicochemical properties, Table 5)
Conditions: solvents in which the substance is soluble
For CC1OC(OC2CCC(OC3(C)CC(=O)C4(O)C5=C(C=CC4(O)C3)C(=O)c3c(ccc(C4CC6OC7CC(=O)C(C)OC7OC6C(C)O4)c3O)C5=O)OC2C)CCC1=O (centres unmarked) [MH190 Y4, Saquayamycin D], the “Solubility (1) Soluble” value was “CHCl3, ethyl acetate, butyl acetate, methanol, acetonitrile, acetone, dimethyl sulfoxide”.
In the case of CC1OC(OC2CCC(OC3(C)CC(=O)C4(O)C5=C(C=CC4(O)C3)C(=O)c3c(ccc(C4CC6OC7CC(=O)C(C)OC7OC6C(C)O4)c3O)C5=O)OC2C)C=CC1=O (centres unmarked) [MH190 Y2, Saquayamycin B], the “Solubility (1) Soluble” value is reported as “CHCl3, ethyl acetate, butyl acetate, methanol, acetonitrile, acetone, dimethyl sulfoxide”.
For CC1OC(OC2C(O)CC(c3ccc4c(c3O)C(=O)C3=C(C4=O)C4(O)C(=O)CC(C)(O)CC4(O)C=C3)OC2C)C=CC1=O (centres unmarked) [MH190 Y1-1, Saquayamycin A1], the “Solubility (1) Soluble” value was “CHCl3, ethyl acetate, butyl acetate, methanol, acetonitrile, acetone, dimethyl sulfoxide”.

Same assay, conditions: solvents in which the substance is sparingly soluble
For CC1OC(OC2CCC(OC3(C)CC(=O)C4(O)C5=C(C=CC4(O)C3)C(=O)c3c(ccc(C4CC6OC7CC(=O)C(C)OC7OC6C(C)O4)c3O)C5=O)OC2C)CCC1=O (centres unmarked) [MH190 Y4, Saquayamycin D], the “Solubility (2) Sparingly soluble” value was “H2O, hexane, petroleum ether”.
For CC1OC(OC2CCC(OC3(C)CC(=O)C4(O)C5=C(C=CC4(O)C3)C(=O)c3c(ccc(C4CC6OC7CC(=O)C(C)OC7OC6C(C)O4)c3O)C5=O)OC2C)C=CC1=O (centres unmarked) [MH190 Y2, Saquayamycin B], the “Solubility (2) Sparingly soluble” value was “H2O, hexane, petroleum ether”.
With CC1OC(OC2C(O)CC(c3ccc4c(c3O)C(=O)C3=C(C4=O)C4(O)C(=O)CC(C)(O)CC4(O)C=C3)OC2C)C=CC1=O (centres unmarked) [MH190 Y1-1, Saquayamycin A1] the “Solubility (2) Sparingly soluble” value was “H2O, hexane, petroleum ether”.

Source: EP0191399A2, “Benz[a]anthraquinone compounds, a microbial process for their preparation and their use as medicaments” (priority 1985, dated 1986)
